Measured values: patent US10188634B2, “3-(3H-imidazo[4,5-C]pyridin-2-yl)-1 H-pyrazolo[4,3-B]pyridines and therapeutic uses thereof” (Samumed, LLC, priority 2015, dated 2019)

How the values were obtained:
[1] = test system: LL29 cells (primary human fibroblasts derived from IPF patients) treated with TGF-β1, α-smooth muscle actin; assay: Inhibition of the fibrotic process: αSMA staining in TGF-β1 treated primary human fibroblasts from IPF patients (LL29 cells); assay type: cell-based; settings: Fibroblast, 96 h; for EC50: LL29 cells treated with TGF-β1 (20 ng/mL), 4 days; for inhibition at 10 µM: LL29 cells treated with TGF-β1, 4 days, read-out: percent inhibition in brackets (given for EC50 >10 μM)
[2] = test system: primary human mesenchymal stem cells (hMSCs); assay: Induction of chondrogenesis in primary human mesenchymal stem cells (hMSCs), nodule imaging with Rhodamine B / Nile Red; assay type: cell-based; settings: for Emax: hMSCs chondrogenesis, TGF-β3 (10 ng/mL) as positive control, read-out: Max. Activity as % TGF-β3 activity; for EC50: hMSCs, concentration required to induce 50% levels of chondrogenesis vs TGF-β3 positive control, read-out: Conc (nM) of 50% TGF-β3 activity
Procedure, shortened: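 Passage 3-6 hMSCs cultured 6 days at 37° C in incomplete chondrogenic induction medium with compound (2700-10 nM, 96-well; 5000-2.2 nM, 384-well; 0.03% DMSO), TGF-β3 10 ng/mL as positive control. Fixed nodules stained with Rhodamine B/Nile Red, imaged at 531/625 nm; nodule area normalized to DMSO wells for EC50, maximum activity and dose at maximum.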

| EC50 [2] | SMILES | EC50 [1] | inhibition at 10 µM [1] | Emax [2] |
| --- | --- | --- | --- | --- |
|  | c1cc(-c2cncc3[nH]c(-c4n[nH]c5ccc(-c6cncc(CNCC7CCCC7)c6)nc45)nc23)co1 [Compound 305, 1-Cyclopentyl-N-((5-(3-(7-(furan-3-yl)-3H-imidazo[4,5-c]pyridin-2-yl)-1H-pyrazolo[4,3-b]pyridin-5-yl)pyridin-3-yl)methyl)methanamine] | > 10000 nM | 0% |  |
|  | Cc1cn(-c2cncc3[nH]c(-c4n[nH]c5ccc(-c6cncc(OCCN(C)C)c6)nc45)nc23)cn1 [Compound 599, N,N-Dimethyl-2-((5-(3-(7-(4-methyl-1H-imidazol-1-yl)-3H-imidazo[4,5-c]pyridin-2-yl)-1H-pyrazolo[4,3-b]pyridin-5-yl)pyridin-3-yl)oxy)ethan-1-amine] | > 10000 nM | 15.4% |  |
|  | Cc1ccncc1-c1ccc2[nH]nc(-c3nc4c(-c5ccsc5)cncc4[nH]3)c2n1 [Compound 257, 5-(4-Methylpyridin-3-yl)-3-(7-(thiophen-3-yl)-3H-imidazo[4,5-c]pyridin-2-yl)-1H-pyrazolo[4,3-b]pyridine] | 8550 nM |  | 24% |
|  | Oc1cncc(-c2ccc3[nH]nc(-c4nc5c(N6CCCCC6)cncc5[nH]4)c3n2)c1 [Compound 585, 5-(3-(7-(Piperidin-1-yl)-3H-imidazo[4,5-c]pyridin-2-yl)-1H-pyrazolo[4,3-b]pyridin-5-yl)pyridin-3-ol] | > 10000 nM | 39.1% |  |
|  | O=C(CC1CCNCC1)Nc1cncc(-c2ccc3[nH]nc(-c4nc5c(-c6ccsc6)cncc5[nH]4)c3n2)c1 [Compound 629, 2-(Piperidin-4-yl)-N-(5-(3-(7-(thiophen-3-yl)-3H-imidazo[4,5-c]pyridin-2-yl)-1H-pyrazolo[4,3-b]pyridin-5-yl)pyridin-3-yl)acetamide] | 2540 nM |  |  |
|  | Cc1ccncc1-c1ccc2[nH]nc(-c3nc4c(-c5cc(F)cc(CNS(C)(=O)=O)c5)cncc4[nH]3)c2n1 [Compound 453, N-(3-Fluoro-5-(2-(5-(4-methylpyridin-3-yl)-1H-pyrazolo[4,3-b]pyridin-3-yl)-3H-imidazo[4,5-c]pyridin-7-yl)benzyl)methanesulfonamide] | > 10000 nM | 0% | 35% |
|  | Fc1cccc(-c2cncc3[nH]c(-c4n[nH]c5ccc(-c6cncc(CN7CCC(F)(F)C7)c6)nc45)nc23)c1 [Compound 26, 5-(5-((3,3-Difluoropyrrolidin-1-yl)methyl)pyridin-3-yl)-3-(7-(3-fluorophenyl)-3H-imidazo[4,5-c]pyridin-2-yl)-1H-pyrazolo[4,3-b]pyridine] | 6220 nM |  | 47% |
|  | Fc1ccc(-c2cncc3[nH]c(-c4n[nH]c5ccc(-c6cncc(CN7CCCC7)c6)nc45)nc23)cc1 [Compound 42, 3-(7-(4-Fluorophenyl)-3H-imidazo[4,5-c]pyrid-2-yl)-5-(5-(pyrrolidin-1-ylmethyl)pyridin-3-yl)-1H-pyrazolo[4,3-b]pyridine] | 2470 nM |  | 15% |
| 30 nM | CC(C)Nc1cncc(-c2ccc3[nH]nc(-c4nc5c(-c6ccoc6)cncc5[nH]4)c3n2)c1 [Compound 292, 5-(3-(7-(Furan-3-yl)-3H-imidazo[4,5-c]pyridin-2-yl)-1H-pyrazolo[4,3-b]pyridin-5-yl)-N-isopropylpyridin-3-amine] | 1150 nM |  | 75% |
| 2 nM | CN(C)CCOc1cncc(-c2ccc3[nH]nc(-c4nc5c(-c6cccc(F)c6)cncc5[nH]4)c3n2)c1 [Compound 487, 2-((5-(3-(7-(3-Fluorophenyl)-3H-imidazo[4,5-c]pyridin-2-yl)-1H-pyrazolo[4,3-b]pyridin-5-yl)pyridin-3-yl)oxy)-N,N-dimethylethan-1-amine] | > 10000 nM | 30.7% | 55% |
|  | CN(C)Cc1cncc(-c2ccc3[nH]nc(-c4nc5c(-c6cccc(F)c6)cncc5[nH]4)c3n2)c1 [Compound 13, 1-(5-(3-(7-(3-Fluorophenyl)-3H-imidazo[4,5-c]pyridin-2-yl)-1H-pyrazolo[4,3-b]pyridin-5-yl)pyridin-3-yl)-N,N-dimethylmethanamine] | 479 nM |  | 17% |
| 10 nM | CC(C)(C)C(=O)Nc1cncc(-c2ccc3[nH]nc(-c4nc5c(-c6ccc(Cl)s6)cncc5[nH]4)c3n2)c1 [Compound 998, N-(5-(3-(7-(5-Chlorothiophen-2-yl)-3H-imidazo[4,5-c]pyridin-2-yl)-1H-pyrazolo[4,3-b]pyridin-5-yl)pyridin-3-yl)pivalamide] | 2700 nM |  | 85% |
| 30 nM | O=C(Nc1cncc(-c2ccc3[nH]nc(-c4nc5c(-c6ccc(Cl)s6)cncc5[nH]4)c3n2)c1)C1CCC1 [Compound 1011, N-(5-(3-(7-(5-Chlorothiophen-2-yl)-3H-imidazo[4,5-c]pyridin-2-yl)-1H-pyrazolo[4,3-b]pyridin-5-yl)pyridin-3-yl)cyclobutanecarboxamide] | 1050 nM |  | 68% |
| 10 nM | FC1(F)CCN(Cc2cncc(-c3ccc4[nH]nc(-c5nc6c(-c7ccsc7)cncc6[nH]5)c4n3)c2)C1 [Compound 278, 5-(5-((3,3-difluoropyrrolidin-1-yl)methyl)pyridin-3-yl)-3-(7-(thiophen-3-yl)-3H-imidazo[4,5-c]pyridin-2-yl)-1H-pyrazolo[4,3-b]pyridine] | 1700 nM |  | 67% |
| 100 nM | CN(C)c1cncc(-c2ccc3[nH]nc(-c4nc5c(N6CCCCC6)cncc5[nH]4)c3n2)c1 [Compound 175, N,N-dimethyl-5-(3-(7-(piperidin-1-yl)-3H-imidazo[4,5-c]pyridin-2-yl)-1H-pyrazolo[4,3-b]pyridin-5-yl)pyridin-3-amine] | 1310 nM |  | 67% |
| 10 nM | Clc1ccc(-c2cncc3[nH]c(-c4n[nH]c5ccc(-c6cncc(CN7CCCC7)c6)nc45)nc23)s1 [Compound 1004, 3-(7-(5-Chlorothiophen-2-yl)-3H-imidazo[4,5-c]pyridin-2-yl)-5-(5-(pyrrolidin-1-ylmethyl)pyridin-3-yl)-1H-pyrazolo[4,3-b]pyridine] | 3470 nM |  | 62% |
|  | CC(C)(C)C(=O)Nc1cncc(-c2ccc3[nH]nc(-c4nc5c(-c6ccc(F)cc6)cncc5[nH]4)c3n2)c1 [Compound 36, N-(5-(3-(7-(4-Fluorophenyl)-3H-imidazo[4,5-c]pyridin-2-yl)-1H-pyrazolo[4,3-b]pyridin-5-yl)pyridin-3-yl)pivalamide] | 1220 nM |  | 42% |
| 30 nM | Cc1ccc(-c2cncc3[nH]c(-c4n[nH]c5ccc(-c6cncc(N)c6)nc45)nc23)s1 [Compound 367, 5-(3-(7-(5-Methylthiophen-2-yl)-3H-imidazo[4,5-c]pyridin-2-yl)-1H-pyrazolo[4,3-b]pyridin-5-yl)pyridin-3-amine] | 815 nM |  | 79% |
|  | O=C(CC1CCNCC1)Nc1cncc(-c2ccc3[nH]nc(-c4nc5c(-c6ccccn6)cncc5[nH]4)c3n2)c1 [Compound 565, 2-(Piperidin-4-yl)-N-(5-(3-(7-(pyridin-2-yl)-3H-imidazo[4,5-c]pyridin-2-yl)-1H-pyrazolo[4,3-b]pyridin-5-yl)pyridin-3-yl)acetamide] | 839 nM |  |  |
| 10 nM | CC(C)CC(=O)Nc1cncc(-c2ccc3[nH]nc(-c4nc5c(-c6ccc(Cl)s6)cncc5[nH]4)c3n2)c1 [Compound 992, N-(5-(3-(7-(5-Chlorothiophen-2-yl)-3H-imidazo[4,5-c]pyridin-2-yl)-1H-pyrazolo[4,3-b]pyridin-5-yl)pyridin-3-yl)-3-methylbutanamide] | 2290 nM |  | 61% |
|  | c1ncc(-c2ccc3[nH]nc(-c4nc5c(N6CCCCC6)cncc5[nH]4)c3n2)cc1OCCN1CCCC1 [Compound 582, 3-(7-(Piperidin-1-yl)-3H-imidazo[4,5-c]pyridin-2-yl)-5-(5-(2-(pyrrolidin-1-yl)ethoxy)pyridin-3-yl)-1H-pyrazolo[4,3-b]pyridine] | 3320 nM |  |  |
|  | Cc1ncc(-c2ccc3[nH]nc(-c4nc5c(-c6ccoc6)cncc5[nH]4)c3n2)n1C [Compound 641, 5-(1,2-Dimethyl-1H-imidazol-5-yl)-3-(7-(furan-3-yl)-3H-imidazo[4,5-c]pyridin-2-yl)-1H-pyrazolo[4,3-b]pyridine] | > 10000 nM | 0% |  |
|  | Fc1ccccc1-c1cncc2[nH]c(-c3n[nH]c4ccc(-c5ccccn5)nc34)nc12 [Compound 84, 3-(7-(2-Fluorophenyl)-3H-imidazo[4,5-c]pyridin-2-yl)-5-(pyridin-2-yl)-1H-pyrazolo[4,3-b]pyridine] | > 10000 nM | 29.7% |  |
|  | Cc1cn(-c2cncc3[nH]c(-c4n[nH]c5ccc(C6=CCNCC6)nc45)nc23)cn1 [Compound 590, 3-(7-(4-Methyl-1H-imidazol-1-yl)-3H-imidazo[4,5-c]pyridin-2-yl)-5-(1,2,3,6-tetrahydropyridin-4-yl)-1H-pyrazolo[4,3-b]pyridine] | > 10000 nM | 36.8% |  |
|  | CN1CCN(c2cncc3[nH]c(-c4n[nH]c5ccc(-c6cnccn6)nc45)nc23)CC1 [Compound 620, 3-(7-(4-Methylpiperazin-1-yl)-3H-imidazo[4,5-c]pyridin-2-yl)-5-(pyrazin-2-yl)-1H-pyrazolo[4,3-b]pyridine] | > 10000 nM | 34.1% |  |
|  | O=C(Nc1cncc(-c2ccc3[nH]nc(-c4nc5c(-c6cccc(F)c6)cncc5[nH]4)c3n2)c1)C1CC1 [Compound 20, N-(5-(3-(7-(3-Fluorophenyl)-3H-imidazo[4,5-c]pyridin-2-yl)-1H-pyrazolo[4,3-b]pyridin-5-yl)pyridin-3-yl)cyclopropanecarboxamide] | > 10000 nM | 0% |  |
